Assays:
[1] = molecular target: T1, human MPO embedded in Matrigel (Homo sapiens, UniProt P05164); experiment: MPO/Matrigel implant mouse model, T1-weighted MR imaging; assay type: in vivo; conditions: mice; right MPO/Matrigel vs left control; 1.5 T
T1 construct: purchased BioDesign, Inc
T1 sequence (P05164 49-745): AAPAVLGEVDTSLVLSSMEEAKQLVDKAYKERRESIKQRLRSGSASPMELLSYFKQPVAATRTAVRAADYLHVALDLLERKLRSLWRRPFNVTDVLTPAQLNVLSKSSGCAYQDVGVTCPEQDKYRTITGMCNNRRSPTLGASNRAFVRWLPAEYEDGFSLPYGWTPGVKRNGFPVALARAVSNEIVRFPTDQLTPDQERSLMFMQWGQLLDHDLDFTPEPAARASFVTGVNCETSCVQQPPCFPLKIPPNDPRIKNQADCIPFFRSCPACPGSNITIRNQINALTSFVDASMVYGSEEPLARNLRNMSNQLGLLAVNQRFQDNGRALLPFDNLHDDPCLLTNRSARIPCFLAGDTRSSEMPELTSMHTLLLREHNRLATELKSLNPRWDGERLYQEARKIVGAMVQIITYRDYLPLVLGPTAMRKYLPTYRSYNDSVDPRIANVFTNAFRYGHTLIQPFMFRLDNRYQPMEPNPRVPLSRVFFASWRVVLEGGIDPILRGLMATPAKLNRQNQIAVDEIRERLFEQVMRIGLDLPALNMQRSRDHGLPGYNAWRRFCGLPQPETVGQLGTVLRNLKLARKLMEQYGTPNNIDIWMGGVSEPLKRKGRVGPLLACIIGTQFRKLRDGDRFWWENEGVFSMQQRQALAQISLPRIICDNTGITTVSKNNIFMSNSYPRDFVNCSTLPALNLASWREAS
Method: To evaluate the monomeric substrates in vivo, we devised a mouse model that harbored 400 μL of Matrigel basement membrane matrix gel mixed 1:1 by volume with a solution containing 15 U of human MPO and glucose oxidase (as a source of hydrogen peroxide) that was injected into the right flank of the mouse. The left flank was injected with the enzyme-free Matrigel mixture. We subsequently performed T1-weighted MR imaging after the intravenous injection of Gd-DTPA-diSer substrate at the dose of […].
The MR imaging experiments were performed on a 1.5 T GE Excite scanner and a 4.7 T Bruker Pharmascan scanner. For all MR imaging experiments, precontrast T2-(TR=2000, TE=100, ETL=8, NEX=4, fast spin echo sequence) and T1-weighted images (TR=500, TE=11, NEX=4, spin echo sequence) with fat saturation were initially performed to locate the gels or area of inflammation. The substrates (0.3 mmol/kg) were subsequently injected via the tail vein of the mouse. The mouse was immediately imaged after the injection of the contrast agent using multiple T1-weighted sequences with fat saturation for at least 3 hours.
(§1) Ten-week old C57BL6 male mice were obtained from Jackson Laboratories. A total of 22 mice were used for the study. • 1. MPO/Matrigel imaging experiments: Matrigel™ (Beckton-Dickinson), a […] basement membrane matrix gel was used to immobilize human MPO and glucose oxidase (to supply H2O2 required for detecting MPO oxidative activity, Calbiochem). This was chosen to reflect deposits of human MPO in inflamed tissue in a mouse model. 400 μL of a mixture of Matrigel™ and MEM (Cambrex) was injected slowly into the thighs of each mouse one hour prior to imaging. The right thigh mixture also contained 15 U of MPO and 4 U of glucose oxidase (Calbiochem), while the left thigh mixture contained no enzyme and thus serves as an internal control. A total of 15 mice were used (3 mice each for 5-HT-DOTA(Gd), bis-5-HT-DTPA(Gd), bis-5-HT-DTPA-^111In, bis-tyramide-DTPA(Gd), and DTPA(Gd)). • 2. LPS/Matrigel experiments (n=3): This model was developed to induce endogeneous mouse MPO secretion and activation. 200 μL total volume Matrigel containing 10% heparin was injected slowly into the thighs of the mice 4 days prior to imaging. The right-sided mixture also contained E. coli lipopolysaccharide (LPS) at 10 μg/mL. One mouse was sacrificed for immunohistochemistry. • 3. Myositis experiments (n=4): LPS at 100 μg/mL in PBS was injected into each mouse intramuscularly in the right flank to produce myositis. The mice are imaged 24 hours after injection.
For normalized signal intensity measured on T1-weighted images, mean±standard deviation (SD) values were calculated in regions of interest (ROI). Contrast-to-noise (CNR) ratios were computed for each ROI according to the formula

MPO = molecular target: T2, MPO (Homo sapiens, UniProt P05164); experiment: SPECT-CT imaging of MPO/Matrigel implants with 111In tracer; assay type: in vivo, mouse; set-up: purchased BioDesign, Inc
T2 sequence (P05164 49-745): T1 sequence (P05164 49-745)
Method: as §1
(§2) 80-100 μCi of ^111In-bis-5-HT-DTPA in 200 μL of saline was injected intravenously into three mice prepared in the same manner as in the MPO/Matrigel MR imaging experiments. The animals were imaged 3 hours after injection on a high resolution X-SPECT/CT system (Gamma Medica). Six hours after injection, the animals were sacrificed and biodistribution was determined in major organs. The % dose accumulated per gram of major organs was determined by using the 1480 Wizard gamma counter (Perkin-Elmer).

[2] = Biodistribution of 111In tracer; assay type: in vivo, mouse; conditions: mice, 6 h post injection
Method: as §2

human neutrophil MPO = molecular target: T3, human neutrophil MPO (Homo sapiens, UniProt P05164); experiment: MPO-mediated polymerization of DOTA(Gd) substrates: T1/T2 relaxivity change; assay type: biochemical; conditions: for relaxivity ratio: ˜2000 U of MPO activity
T3 construct: purchased BioDesign Inc
Method: (§3) Reactions with HRP and MPO were carried out at room temperature in the presence of 0.5-1 mM substrate dissolved in 0.5 ml PBS containing H2O2 (2 mM). Reaction was initiated by adding an aliquot containing the enzyme (either HRP or MPO) and vortexing. After at least a 30 min incubation period T1 was measured using inversion-recovery pulse sequence Bruker Minispec (Buker Analytics, North Bellirica Mass.) at 0.47 T (20 MHz). Size-exclusion HPLC of reaction products was performed on TSK G3000SWXL macroporous column (Supelco) eluted with 0.1 M triethylammonium acetate, pH 7.0 at 1 ml/min.
(§4) Standard 96-well plates were prepared and imaged on a 1.5 T whole body clinical General Electric Signa MRI scanner utilizing a standard 3 inch surface coil. Inversion recovery sequences were used to measure T1 relaxation and spin echo sequences were utilized to measure T2 relaxation. T2 weighted images were obtained with TR=5000 ms and TE=100 ms with a fast spin echo sequence. T1 weighted images were obtained with spin echo sequences with the following parameters: TR=100, 200, 350, or 500, TE=11. For the Matrigel™ experiments, a relatively T2 weighted image was obtained at TR=300 ms and TE=200 ms. Single-exponential models were used to obtain T1 and T2. The relaxivities were computed by normalizing relaxation rates to the concentration of gadolinium in each sample, obtained by inductive coupled plasma (ICP) analysis performed by Galbraith Laboratories.
To determine the effect of myeloperoxidase on the substrates, we performed T1 and T2 relaxivity measurements in aqueous solutions, with and without MPO and hydrogen peroxide, at 0.47 T and 1.5 T (the results are summarized in FIGS. 3A and 3B for tyramide-DOTA(Gd) and FIGS. 4A and 4B for 5-HT-DOTA(Gd)). For reference, the two substrates were also reacted with HRP (solid symbols in FIGS. 3A and 3B and FIGS. 4A and 4B).

MPO-I = molecular target: T4, MPO-I (Homo sapiens, UniProt P05164); conditions: cited from earlier work
T4 sequence (P05164 49-745): T1 sequence (P05164 49-745)

[3] = molecular target: T5, horseradish peroxidase (HRP) (Armoracia rusticana, UniProt P00433); experiment: HRP-mediated polymerization of DOTA(Gd) substrates: relaxivity change; assay type: biochemical; set-up: purchased Sigma
T5 sequence (P00433 31-338): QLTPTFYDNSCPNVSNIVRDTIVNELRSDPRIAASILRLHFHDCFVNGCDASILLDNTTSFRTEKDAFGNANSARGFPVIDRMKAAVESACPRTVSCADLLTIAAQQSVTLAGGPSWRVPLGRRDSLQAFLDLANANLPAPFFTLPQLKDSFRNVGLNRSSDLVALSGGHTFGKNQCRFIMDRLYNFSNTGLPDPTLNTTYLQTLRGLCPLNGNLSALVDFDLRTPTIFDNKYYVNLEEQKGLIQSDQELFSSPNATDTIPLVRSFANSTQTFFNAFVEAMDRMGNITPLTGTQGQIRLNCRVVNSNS
Method: as §3
as §4, with “The relaxivities were computed by normalizing relaxation rates to the concentration of gadolinium in each sample, obtained by inductive coupled plasma (ICP) analysis performed by Galbraith Laboratories.” left out

[4] = molecular target: T5, horseradish peroxidase (HRP); experiment: Pseudo-first-order rate constants of HRP-mediated conversion (relaxation times over time, 0.47 T); assay type: biochemical, horseradish; set-up: purchased Sigma-Aldrich type XII (catalogue number not given); conditions: from T1 measurements, mean±SD
Method: Kinetics of the samples were observed by measuring T1 and T2 at 0.47 T and 40° C. of the samples over at least a 24 hour period. At different time points, 1 M of sodium azide (final concentration=0.17 M) was added to stop the enzyme mediated reaction. The resultant progress curve was fitted with an empirical mathematical model and analyzed according to the Guggenheim method to obtain the pseudo-first-order rate constants (Guggenheim E A. Philos. Mag. 1926; 2:538).
An important property of a suitable substrate for an enzyme is the kinetics of enzymatic reaction. To determine the utility of the paramagnetic complexes as suitable substrates for human myeloperoxidase (MPO), we measured the pseudo-first-order rate constant of these substrates in MPO, and compared to the same substrates' reactions in Horse Radish Peroxidase (HRP) by monitoring the changes in relaxation time over time. […] The results shown were obtained using T1 measurements. T2 measurements yielded nearly identical results. The results are presented as mean±SD. N/A=not applicable.

O=C(O)CN(CCN(CC(=O)O)CC(=O)NCCc1c[nH]c2ccc(O)cc12)CCN(CC(=O)O)CC(=O)NCCc1c[nH]c2ccc(O)cc12 [Compound 2]
enhancement of MPO implant compared with control implant [1]: significantly increased enhancement

O=C([O-])CN(CCN(CC(=O)[O-])CC(=O)NCCc1c[nH]c2ccc(O)cc12)CCN(CC(=O)[O-])CC(=O)NCCc1c[nH]c2ccc(O)cc12.[111In+3] [^111In-bis-5-HT-DTPA]
increase in the radioactivity of the right leg (with MPO) vs. the left leg (without MPO) (MPO; mice n=3, SPECT-CT 3 hours after injection): 2.3±0.3 fold
increase in count in the dissected gel with embedded MPO (MPO; mice, 6 h post injection): greater than 4 fold
uptake on the side containing MPO (MPO; mouse, SPECT/CT 3 hours after the injection): significant increased uptake
injected dose excreted [2]: 90%
organs holding most of the remaining dose [2]: spleen, bowel, kidney, and liver
organs holding most of the remaining dose ([2]; listed as 111In-chelated monomeric substrate): spleen, kidneys, bowel, and liver

CC(C(=O)NCC(=O)NCCc1ccc(O)c(O)c1)N1CCN(CC(=O)[O-])CCN(CC(=O)[O-])CCN(CC(=O)[O-])CC1.[Gd+3] (stereo not shown) [hydroxytyramide-DOTA(Gd), Glycylmethyl DOTA(Gd) Hydroxytyramide]
reaction with MPO (human neutrophil MPO): does not react with MPO
relaxivity increase from reaction with MPO (human neutrophil MPO): did not result in a substantially significant relaxivity increase

NCCc1c[nH]c2ccc(O)cc12 [serotonin, 3-(2-aminoethyl)-5-hydroxyindole]
MPO-mediated oxidation in excess chloride (MPO-I; about 5,000 times higher excess of chloride): could not be completely stopped
kinetic constant of the MPO-I reaction relative to the reaction with chloride (MPO-I; neutral pH): about 10 times

CC(C(=O)NCC(=O)NCCc1ccc(O)cc1)N1CCN(CC(=O)[O-])CCN(CC(=O)[O-])CCN(CC(=O)[O-])CC1.[Gd+3] (stereo not shown) [tyramide-DOTA(Gd), Glycylmethyl DOTA(Gd) Tyramide]
relaxivity ratio (human neutrophil MPO; 0.47 T): 1.7 times
relaxivity ratio (human neutrophil MPO; 1.5 T): 1.4 times
T1 shortening relative to the HRP result (human neutrophil MPO; 2000 U MPO): 70-75%
MPO needed to reach >90% of the T1 shortening seen with HRP (human neutrophil MPO; assuming a linear response to the amount of MPO): > 3000 U
increase in relaxivity of polymer product (human neutrophil MPO; equivalent amount of MPO, clinical imaging strength): 1.4 times
relaxivity ratio ([3]; 0.47 T): about 2.3 times
relaxivity ratio ([3]; 1.5 T): about 2.1 times
Pseudo first-order rate constant [4]: 0.0095 s⁻¹

Reference: US8153784B2, “Imaging of enzyme activity” (The General Hospital Corporation, priority 2004, dated 2012)
